Reference: US20110118127A1, “MARKER GENES FOR SCREENING OF DRUG-INDUCED TOXICITY IN HUMAN CELLS AND SCREENING METHOD USING THE SAME” (priority 2009, published 2011)
Converted amounts (≈) assume the structure as drawn. Where two headings read alike, the source gives them in different places.

Columns and labels:
in vitro [1] = settings: human
Description: (§1) Human cell lines, BEAS-2B (ATCC, USA), JEG-3 (Korean Cell Line Bank, Korea) and HK-2 (Korean Cell Line Bank, Korea) were cultured in T 75 flask containing DMEM (Gibco-BRL, USA) supplemented with 10% FBS at the concentration of 5×10^5 cells/ml. THLE-3 cells were cultured in BEGM (Gibco-BRL, USA) supplemented with 10% FBS. HUVEC cells (ATCC, USA) were cultured in T 75 flask containing EGM-2 (CAMBREX, USA) supplemented with 5% FBS at the concentration of 5×10^5 cells/ml. […] Those drugs were dissolved in DMSO and water. The concentration of vehicle was up to 0.1% in every experiment.
(§2) MTT assay was performed with BEAS-2B, JEG-3, HK-2, THLE-3 and HUVEC according to the method of Mossman et al (J. Immunol. Methods, 65, 55-63, 1983). The cells (Table 2) in a 24-well plate were treated with each drug dissolved in DMSO or water. […] Then, the medium was eliminated and the formed formazan crystal was dissolved in 500 μl of DMSO. The mixture was aliquoted in a 96-well plate and OD54o was measured.

[2] = Cytotoxicity test (MTT assay) in THLE-3; settings: human
Description: as §1, §2

HepG2 = assay: Cytotoxicity test (MTT assay) in HepG2; type: cell-based, human; settings: Table 11; HepG2 40 × 10^4 cells/well, 48 h; read-out: Cytotoxicity IC20 Conc.
Description: (§3) The cells (Table 2) in a 24-well plate were treated with each drug dissolved in DMSO or water. 24 and 48 hours later, 5 mg/μl of MTT (3-[4,5-dimethylthiazol-2-yl]-2,5-diphenyltetra zolium bromide) was added thereto, followed by culture at 37 for 3 hours. Then, the medium was eliminated and the formed formazan crystal was dissolved in 500 μl of DMSO. The mixture was aliquoted in a 96-well plate and OD540 was measured.

in vitro [3] = settings: human; remark: listed apart in the source
[4] = Cytotoxicity test (MTT assay) in HepG2; type: cell-based, human; settings: human
Description: as §3

[5] = Cytotoxicity test (MTT assay) in HUVEC; type: cell-based; settings: human, HUVEC 10 × 10^4 cells/well, survival inhibited 20%, read-out: Cytotoxicity IC20 Conc.
Description: as §1, §2

THLE-3 = assay: Cytotoxicity test (MTT assay) in THLE-3; settings: read-out: Cytotoxicity IC20 Conc.; THLE-3 3 × 10^4 cells/well, 3 h; survival inhibited 20%
Description: as §1, §2

HK-2 [6] = settings: human, 24 h
Description: (§4) Human cell lines, BEAS-2B (ATCC, USA), JEG-3 (Korean Cell Line Bank, Korea) and HK-2 (Korean Cell Line Bank, Korea) were cultured in T 75 flask containing DMEM (Gibco-BRL, USA) supplemented with 10% FBS at the concentration of 5×10^5 cells/ml. […] Those drugs were dissolved in DMSO and water. The concentration of vehicle was up to 0.1% in every experiment.
(§5) MTT assay was performed with BEAS-2B, JEG-3, HK-2, THLE-3 and HUVEC according to the method of Mossman et al (J. Immunol. Methods, 65, 55-63, 1983). The cells (Table 2) in a 24-well plate were treated with each drug dissolved in DMSO or water. 48 hours later, 5 mg/ml of MTT (3-[4,5-dimethylthiazol-2-yl]-2,5-diphenyltetra zolium bromide) was added thereto, followed by culture at 37 for 3 hours. Then, the medium was eliminated and the formed formazan crystal was dissolved in 500 μl of DMSO. The mixture was aliquoted in a 96-well plate and OD54o was measured.
(§6) MTT assay was performed with BEAS-2B, JEG-3, HK-2 and HepG2 according to the method of Mossman et al (J. Immunol. Methods, 65, 55-63, 1983). The cells (Table 2) in a 24-well plate were treated with each drug dissolved in DMSO or water. 24 and 48 hours later, 5 mg/μl of MTT (3-[4,5-dimethylthiazol-2-yl]-2,5-diphenyltetra zolium bromide) was added thereto, followed by culture at 37 for 3 hours. […] The mixture was aliquoted in a 96-well plate and OD540 was measured.

JEG-3 [7] = settings: human, 48 h
Description: as §4, §5
(§7) MTT assay was performed with BEAS-2B, JEG-3, HK-2 and HepG2 according to the method of Mossman et al (J. Immunol. Methods, 65, 55-63, 1983). The cells (Table 2) in a 24-well plate were treated with each drug dissolved in DMSO or water. 24 and 48 hours later, 5 mg/μl of MTT (3-[4,5-dimethylthiazol-2-yl]-2,5-diphenyltetra zolium bromide) was added thereto, followed by culture at 37 for 3 hours. Then, the medium was eliminated and the formed formazan crystal was dissolved in 500 μl of DMSO. The mixture was aliquoted in a 96-well plate and OD540 was measured.

JEG-3 [8] = assay: Cytotoxicity test (MTT assay) in JEG-3; settings: Table 11; JEG-3 3 × 10^4 cells/well, 48 h
Description: as §4, §5, §7

HK-2 [9] = assay: Cytotoxicity test (MTT assay) in HK-2; settings: HK-2 2.3 × 10^4 cells/well, 24 h; survival inhibited 30%
Description: as §4, §5, §6

Compound: O=[N+]([O-])c1ccc2c(c1)Cc1ccccc1-2 [2-nitrofluorene]
- IC20 at 3 h (in vitro [1]): 80.8 µM

Compound: O=[N+]([O-])c1cc[n+]([O-])c2ccccc12 [4-nitroquinoline-N-oxide]
- IC20 at 3 h [2]: 0.83 µM

Compound: CC(=O)Nc1ccc(O)cc1 [Acetaminophene]
- IC20 (HepG2): 11000 µM

Compound: CCCCc1oc2ccccc2c1C(=O)c1cc(I)c(OCCN(CC)CC)c(I)c1 [Amiodarone]
- IC20 at 48 h (in vitro [3]): 29.4 µM

Compound: c1ccc2c(c1)cc1ccc3cccc4ccc2c1c34 [Benzo(a)pyrene]
- IC20 at 48 h [4]: 8.35 µM

Compound: NC(=O)N1c2ccccc2C=Cc2ccccc21 [Carbamazepine]
- IC20 at 48 h (in vitro [3]): 324 µM

Compound: COc1cccc2c1C(=O)c1c(O)c3c(c(O)c1C2=O)C[C@@](O)(C(C)=O)C[C@@H]3O[C@H]1C[C@H](N)[C@H](O)[C@H](C)O1 [Daunorubicin]
- IC20 at 48 h [5]: 0.191 µg/mL (≈ 0.362 µM)

Compound: COc1cccc2c1C(=O)c1c(O)c3c(c(O)c1C2=O)C[C@@](O)(C(=O)CO)C[C@@H]3O[C@H]1C[C@H](N)[C@H](O)[C@H](C)O1 [Doxorubicin]
- IC20 at 48 h [5]: 0.083 µg/mL (≈ 0.153 µM)

Compound: NC(=O)/C(=C\c1ccc([N+](=O)[O-])o1)c1ccco1 [Furylfuramide]
- IC20 (THLE-3): 243 µM

Compound: CC(C)Cc1ccc(C(C)C(=O)O)cc1 (stereo not shown) [Ibuprofen]
- Cytotoxicity IC30 Conc. (HK-2 [6]): 1650 µg/mL

Compound: CN(Cc1cnc2nc(N)nc(N)c2n1)c1ccc(C(=O)N[C@@H](CCC(=O)O)C(=O)O)cc1 [Methotrexate]
- IC20 at 48 h (in vitro [3]): 0.144 µM
- Cytotoxicity IC30 Conc. (JEG-3 [7]): 4750 µM

Compound: COS(C)(=O)=O [Methylmethanesulfonate, methylmethanesulfonate]
- IC20 at 3 h (in vitro [1]): 510 µM

Compound: CN(N=O)C(N)=O [N-nitroso-N-methylurea]
- IC20 at 3 h [2]: 2090 µM

Compound: O=C1CN(/N=C/c2ccc([N+](=O)[O-])o2)C(=O)N1 [Nitrofurantoin]
- IC20 at 48 h (in vitro [3]): 89.5 µM

Compound: O=C1CCC(N2C(=O)c3ccccc3C2=O)C(=O)N1 (stereo not shown) [Thalidomide]
- Cytotoxicity IC30 Conc. (JEG-3 [7]): 4283 µM

Compound: CCCC(CCC)C(=O)O [Valproic acid]
- Cytotoxicity IC30 Conc. (JEG-3 [7]): 7380 µM

Compound: CC(=O)CC(c1ccccc1)c1c(O)c2ccccc2oc1=O (stereo not shown) [Warfarin]
- Cytotoxicity IC30 Conc. (JEG-3 [8]): 8160 µM

Compound: Gentamycin
- Cytotoxicity IC30 Conc. (HK-2 [9]): 3440 µg/mL
